Measured values: patent publication US12285399B2, “Composition comprising bornyl acetate or pharmaceutically acceptable salt thereof as active ingredient for prevention or treatment of stress-related disorder” (UNIVERSITY-INDUSTRY COOPERATION GROUP OF KYUNG HEE …, priority 2019, dated 2025)

Tests used:
Assay type in all cases: in vivo, C57BL/6NTac mice
[1] = system: animal model of stress depression induced by chronic restrained stress (CRS); test: Tail suspension test (TST) in CRS-induced stress depression model; settings: CRS+BA group, oral daily 1 hour before restraint, day 14, last 4 minutes of 6-minute test; dose not stated
Protocol: In order to confirm the antidepressant efficacy of bornyl acetate on the animal model of stress depression, an animal model of depression induced by chronic restrained stress (CRS) was prepared. Specifically, the animal model, 8-week-old male C57BL/6NTac mice after birth (Narabiotechnology, Korea; weight 22-24 g) had been stabilized for 1 week. A 50 ml conical tube (SPL Life sciences, Pocheon, Korea) was punched to make a hole, thereby making a restraint frame. The mice were put in the frame and restrained for 2 hours every day for 14 days. After restraint, the mice were allowed to freely ingest water and food in the home cage. On the 14th day after chronic restrained stress was induced, the tail tip of the mouse was fixed and hanged upside down on a horizontal bar (1 cm in diameter) installed at a height of about 50 cm from the floor, and then the time of immobility was measured. Measurements were made during the last 4 minutes of the 6-minute test period. Bornyl acetate (25, 50 and 100 mg/kg) of the present invention was dissolved in 0.1 M PBS, and the mixture was orally administered 1 hour before inducing restrained stress every day. Bornyl acetate was administered in a dose per individual of 100 μl.

[2] = system: animal model of stress depression induced by chronic restrained stress (CRS); test: Forced swimming test (FST) in CRS-induced stress depression model; settings: CRS+BA group, oral daily 1 hour before restraint, 24 hours after TST, last 4 minutes of 6-minute test; dose not stated
Protocol: In order to confirm the antidepressant efficacy of bornyl acetate on the animal model of stress depression, an animal model of depression induced by chronic restrained stress (CRS) was prepared. Specifically, the animal model, 8-week-old male C57BL/6NTac mice after birth (Narabiotechnology, Korea; weight 22-24 g) had been stabilized for 1 week. A 50 ml conical tube (SPL Life sciences, Pocheon, Korea) was punched to make a hole, thereby making a restraint frame. The mice were put in the frame and restrained for 2 hours every day for 14 days. After restraint, the mice were allowed to freely ingest water and food in the home cage. 24 hours after the tail suspension test, distilled water (23-24° C.) was filled to a height of about 14 cm in a circular water tank (diameter 15×height 25 cm), and the mice were dropped and forced to swim. […] Bornyl acetate (25, 50 and 100 mg/kg) of the present invention was dissolved in 0.1 M PBS, and the mixture was orally administered 1 hour before inducing restrained stress every day. Bornyl acetate was administered in a dose per individual of 100 μl.

[3] = system: corticosterone; test: Serum stress hormone (corticosterone) ELISA in CRS model; settings: CRS+BA group, 14 days
Protocol: In order to confirm the antidepressant efficacy of bornyl acetate on the animal model of stress depression, an animal model of depression induced by chronic restrained stress (CRS) was prepared. Specifically, the animal model, 8-week-old male C57BL/6NTac mice after birth (Narabiotechnology, Korea; weight 22-24 g) had been stabilized for 1 week. A 50 ml conical tube (SPL Life sciences, Pocheon, Korea) was punched to make a hole, thereby making a restraint frame. The mice were put in the frame and restrained for 2 hours every day for 14 days. After restraint, the mice were allowed to freely ingest water and food in the home cage. Bornyl acetate (25, 50 and 100 mg/kg) was orally administered 1 hour before inducing restrained stress every day. 14 days later, the mice were anesthetized, and the blood was collected. The blood was centrifuged at 5,000 rpm for 15 minutes to separate serum. In order to confirm the level of corticosterone, a stress hormone, in serum, an enzyme-linked immunosorbent assay (ELISA) kit (Enzo life sciences, Farmingdale, NY, USA) was used for analysis.

[4] = system: CD11b protein; test: Western blot of CD11b protein in brain (hippocampus and amygdala) of CRS model; settings: CRS+BA group
Protocol: In order to confirm the antidepressant efficacy of bornyl acetate on the animal model of stress depression, an animal model of depression induced by chronic restrained stress (CRS) was prepared. Specifically, the animal model, 8-week-old male C57BL/6NTac mice after birth (Narabiotechnology, Korea; weight 22-24 g) had been stabilized for 1 week. A 50 ml conical tube (SPL Life sciences, Pocheon, Korea) was punched to make a hole, thereby making a restraint frame. The mice were put in the frame and restrained for 2 hours every day for 14 days. After restraint, the mice were allowed to freely ingest water and food in the home cage. The hippocampus and amygdala of the brain were excised. They were added to 200 μl of a protein lysis buffer (10 mM Tris, 0.5 mM EDTA, 0.25 M sucrose), and proteins were isolated using a grinder. The isolated protein was quantified by the Bradford method (Bio-rad, USA) using bovine serum albumin (BSA, Sigma, USA), and then 25 μg of the protein was separated by 10% sodium dodecyl sulfate-polyacrylamide gel electrophoresis (SDS-PAGE) and transferred to polyvinylidene difluoride (PVDF) membrane (Gendepot, UK). PVDF membranes were blocked in 5% skimmed milk (BD, USA) for 1 hour. […] Identification and quantitative analysis of proteins were analyzed using an imaging device ChemiDoc XRS+ (Bio-Rad). […]

CC(=O)OC1CC2CCC1(C)C2(C)C (stereo not drawn) [BA, bornyl acetate]
time of immobility, tail suspension test [1]: 91.4 s | time of immobility, forced swimming test [2]: 85.2 s | level of stress hormone (corticosterone) in serum ([3]; 50 mg/kg oral): 2869.8 pg/mL | level of stress hormone (corticosterone) in serum ([3]; 100 mg/kg oral): 2202.5 pg/mL | expression of CD11b protein (CRS-induced increase) ([4]; amygdala): significantly inhibited | expression of CD11b protein (CRS-induced increase) ([4]; hippocampus): significantly inhibited
